Measured values from publication PMC9570328, “Spatial Structure of NanoFAST in the Apo State and in Complex with its Fluorogen HBR-DOM2” (International Journal of Molecular Sciences, 2022).
pKd: −log10 of the molar value.

Experiments:
FAST = target: T1, FAST (Halorhodospira halophila, UniProt P16113, C69G/D97P/F96I/M100R/Q99S/T95M/Y94W/Y98T); assay: spectrofluorometric titration (Table S1); assay type: binding
T1 construct: gene pyp; full-length FAST (engineered variant of PYP)

nanoFAST [1] = target: T2, nanoFAST (Halorhodospira halophila, UniProt P16113, C69G/Y94W/T95M/F96I/D97P/Y98T/Q99S/M100R); assay: fluorescence titration; weak binding, seen only at […] protein
T2 construct: gene pyp; nanoFAST: FAST lacking the first 26 residues (98 amino acids); engineered variant of PYP
T2 sequence (P16113 27-125 C69G/Y94W/T95M/F96I/D97P/Y98T/Q99S/M100R): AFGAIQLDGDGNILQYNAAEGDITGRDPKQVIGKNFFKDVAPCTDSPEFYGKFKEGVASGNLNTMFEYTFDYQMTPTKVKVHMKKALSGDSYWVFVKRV

nanoFAST [2] = target: T2, nanoFAST; assay: solution NMR structure of the complex, […] intermolecular NOE distances; assay type: binding; settings: cited from earlier work

T1 sequence (P16113 whole entry C69G/Y94W/T95M/F96I/D97P/Y98T/Q99S/M100R): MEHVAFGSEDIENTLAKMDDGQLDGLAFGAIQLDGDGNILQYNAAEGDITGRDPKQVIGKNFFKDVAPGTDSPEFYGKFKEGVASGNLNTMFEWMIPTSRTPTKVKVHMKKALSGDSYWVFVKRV

Row | Structure (SMILES) | pKd (FAST) | also measured
1 | COc1cc(/C=C2N=C(/C=C/c3ccncc3)N(C)C\2=O)c(OC)cc1O [N1048] | 6.82 | 
2 | COc1cc(/C=C2\N=C(C)N(C)C2=O)c(OC)cc1O [N1036] | 6.15 | 
3 | COc1cc(O)ccc1/C=C1N=C(/C=C/c2ccncc2)N(C)C\1=O [N871b] |  | fluorescence titration; weak binding, seen only at ~100 μM protein (nanoFAST [1]): N871b is bright when bound to nanoFAST, but its binding affinity is extremely weak
4 | COc1cc(/C=C2\SC(=S)NC2=O)c(OC)cc1O [HBR-DOM2] |  | pKd (nanoFAST [2]): 6.07
